# Source: US7951815B2, “Substituted 1,4,8-triazaspiro [4,5]decan-2-one compounds” (Gruenenthal GmbH, priority 2004, dated 2011)
# Columns and labels:
# 5-HT transporter = biological target: T1, 5-HT transporter (Rattus norvegicus, UniProt P31652); assay: Inhibition of 5-HT uptake in rat brain synaptosomes; assay type: biochemical; conditions: Table III, rat, 1 μM; for inhibition at 1 µM: read-out: Uptake 5-HT, % inhibition
# T1 construct: synaptosomes of rat brain areas are freshly isolated; from tissue; host or cells: rat brain synaptosomes (P2 fraction) from marrow and pons
# NA transporter = assay: Inhibition of noradrenaline uptake in rat brain synaptosomes; assay type: biochemical; conditions: Table III
# T1 sequence (P31652 whole entry): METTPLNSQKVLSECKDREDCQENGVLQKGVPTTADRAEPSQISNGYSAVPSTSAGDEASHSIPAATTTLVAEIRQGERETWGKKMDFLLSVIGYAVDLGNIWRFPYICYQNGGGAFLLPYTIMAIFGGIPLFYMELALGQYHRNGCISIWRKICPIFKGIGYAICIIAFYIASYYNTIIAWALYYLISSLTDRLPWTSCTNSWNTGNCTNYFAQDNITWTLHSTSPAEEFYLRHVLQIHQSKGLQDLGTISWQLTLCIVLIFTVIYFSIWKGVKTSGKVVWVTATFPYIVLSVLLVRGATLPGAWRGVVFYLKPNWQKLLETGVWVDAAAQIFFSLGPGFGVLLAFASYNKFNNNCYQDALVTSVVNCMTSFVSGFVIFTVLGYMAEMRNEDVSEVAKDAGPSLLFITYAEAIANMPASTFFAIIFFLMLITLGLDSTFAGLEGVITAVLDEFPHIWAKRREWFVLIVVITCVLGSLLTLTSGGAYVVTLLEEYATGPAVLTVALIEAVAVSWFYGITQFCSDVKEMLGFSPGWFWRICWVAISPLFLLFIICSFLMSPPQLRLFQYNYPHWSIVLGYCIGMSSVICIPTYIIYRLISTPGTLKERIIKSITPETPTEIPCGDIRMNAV
inhibition at 1 µM (5-HT transporter) [%],SMILES,"Uptake 5-HT, rat, 1 μM, % inhibition (5-HT transporter) [%]","Uptake (NA), rat, 10 μM, % inhibition (NA transporter) [%]"
,"CCOC(=O)C(C)(C)C(=O)N1CCC2(CC1)NC(CC(C)C)C(=O)N2CCCCOC(C)=O (centres unmarked) [Example 278, Ethyl 2-[1-(4-acetoxybutyl)-3-isobutyl-2-oxo-1,4,8-triazaspiro[4,5]dec-8-yl]-1,1-dimethyl-2-oxo-acetate]",39,56
34,"CC(C)C1NC2(CCN(C(=O)c3ccco3)CC2)N(Cc2ccccc2C#N)C1=O (centres unmarked) [Example 103, 2-[8-(Furan-2-carbonyl)-3-isopropyl-2-oxo-1,4,8-triazaspiro[4,5]dec-1-ylmethyl]benzonitrile]",,30
50,"Cc1cccc(C(=O)N2CCC3(CC2)NCC(=O)N3CCOc2ccccc2)c1 [Example 86, 8-(3-Methylbenzoyl)-1-(2-phenoxyethyl)-1,4,8-triazaspiro[4,5]decan-2-one]",,38
37,"CC(C)C1NC2(CCN(C(=O)c3c(F)cccc3Cl)CC2)NC1=O (centres unmarked) [Example 116, 8-(2-Chloro-6-fluorobenzoyl)-3-isopropyl-1,4,8-triazaspiro[4,5]decan-2-one]",,34
43,"COCC(=O)N1CCC2(CC1)NC(CCSC)C(=O)N2Cc1cccc(C#N)c1 (centres unmarked) [Example 112, 3-[8-(2-Methoxyacetyl)-3-(2-methylsulfanylethyl)-2-oxo-1,4,8-triazaspiro[4,5]dec-1-ylmethyl]benzonitrile]",,42
44,"CCCCN1C(=O)C(CCSC)NC12CCN(C(=O)c1ccc(C#N)cc1)CC2 (centres unmarked) [Example 125, 4-[1-Butyl-3-(2-methylsulfanylethyl)-2-oxo-1,4,8-triazaspiro[4,5]decan-8-carbonyl]benzonitrile]",,36
30,"COc1cc(OC)cc(C(=O)N2CCC3(CC2)NC(=O)C(CC(C)C)N3)c1 (centres unmarked) [Example 92, 8-(3,5-Dimethoxybenzoyl)-3-isobutyl-1,4,8-triazaspiro[4,5]decan-2-one]",,30
43,"N#Cc1ccccc1CN1C(=O)CNC12CCN(C(=O)C=Cc1ccccc1Cl)CC2 [Example 89, 2-{8-[3-(2-Chlorophenyl)acryloyl]-2-oxo-1,4,8-triazaspiro[4,5]dec-1-ylmethyl}benzonitrile]",,41
41,"CC(C)CC1NC2(CCN(C(=O)c3cccc(Cl)c3)CC2)NC1=O (centres unmarked) [Example 90, 8-(3-Chlorobenzoyl)-3-isobutyl-1,4,8-triazaspiro[4,5]decan-2-one]",,35
,"CC(=O)OC(C(=O)N1CCC2(CC1)NC(Cc1ccccc1)C(=O)N2C)c1ccccc1 (centres unmarked) [Example 113, Ethyl 2-(3-benzyl-1-methyl-2-oxo-1,4,8-triazaspiro[4,5]dec-8-yl)-2-oxo-1-phenylacetate]",35,46
51,"N#Cc1cccc(CN2C(=O)CNC23CCN(C(=O)c2cc(C(F)(F)F)cc(C(F)(F)F)c2)CC3)c1 [Example 273, 3-[8-(3,5-Bis-trifluoromethylbenzoyl)-2-oxo-1,4,8-triazaspiro[4,5]dec-1-ylmethyl]benzonitrile]",,38
67,"CCCCN1C(=O)C(CCSC)NC12CCN(C(=O)Cc1ccc(OC)c(OC)c1)CC2 (centres unmarked) [Example 97, 1-Butyl-8-[2-(3,4-dimethoxyphenyl)acetyl]-3-(2-methylsulfanylethyl)-1,4,8-triazaspiro[4,5]decan-2-one]",,30
51,"C#CCN1C(=O)C(Cc2ccccc2)NC12CCN(C(=O)c1c(F)cccc1Cl)CC2 (centres unmarked) [Example 210, 3-Benzyl-8-(2-chloro-6-fluorobenzoyl)-1-prop-2-ynyl-1,4,8-triazaspiro[4,5]decan-2-one]",,31
